These results are taken from ChEMBL document CHEMBL1909046, “DrugMatrix in vitro pharmacology data”.

For one series, the target named is Cytochrome P450 2C19 (Homo sapiens, UniProt P33261). To be noted: bti-tn-5b1-4. Note: in other assays of this panel Not Active means under 50% inhibition at 10 µM.
Series [1] addresses T1, Neuropeptide Y receptor type 2 (Homo sapiens, UniProt P49146).
T1 sequence (P49146 whole entry): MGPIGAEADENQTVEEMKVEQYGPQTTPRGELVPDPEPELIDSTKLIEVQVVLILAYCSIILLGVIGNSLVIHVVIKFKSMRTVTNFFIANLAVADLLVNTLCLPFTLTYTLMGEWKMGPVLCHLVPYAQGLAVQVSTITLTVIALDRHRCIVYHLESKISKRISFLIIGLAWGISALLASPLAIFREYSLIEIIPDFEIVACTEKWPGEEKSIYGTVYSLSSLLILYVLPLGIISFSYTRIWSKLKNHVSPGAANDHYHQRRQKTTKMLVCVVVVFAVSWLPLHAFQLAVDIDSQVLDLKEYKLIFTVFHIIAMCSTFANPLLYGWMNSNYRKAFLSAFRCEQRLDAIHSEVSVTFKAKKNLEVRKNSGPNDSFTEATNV
Format: cell membranes, Membrane. The settings on record: kan-ts.

A further series has as its target Adenosine receptor A2a (Homo sapiens, UniProt P29274). Put plainly: DRUGMATRIX: Adenosine A2A radioligand binding (ligand: […]). Format: cell membranes, HEK293, Membrane. To be noted: Not Active = under 50% inhibition at 10 µM.
Series [2] has as its target Matrix metalloproteinase-9 (Homo sapiens, UniProt P14780). Format: cell-based.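 Note: inhibition of isolated MMP-9 enzyme activity toward a synthetic peptide substrate, from the DrugMatrix protease screening panel; in other assays of this panel Not Active means under 50% inhibition at 10 µM.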
For series [3], the target named is T2, C-C chemokine receptor type 4 (Homo sapiens, UniProt P51679). Note: in other assays of this panel Not Active means under 50% inhibition at 10 µM.
T2 sequence (P51679 whole entry): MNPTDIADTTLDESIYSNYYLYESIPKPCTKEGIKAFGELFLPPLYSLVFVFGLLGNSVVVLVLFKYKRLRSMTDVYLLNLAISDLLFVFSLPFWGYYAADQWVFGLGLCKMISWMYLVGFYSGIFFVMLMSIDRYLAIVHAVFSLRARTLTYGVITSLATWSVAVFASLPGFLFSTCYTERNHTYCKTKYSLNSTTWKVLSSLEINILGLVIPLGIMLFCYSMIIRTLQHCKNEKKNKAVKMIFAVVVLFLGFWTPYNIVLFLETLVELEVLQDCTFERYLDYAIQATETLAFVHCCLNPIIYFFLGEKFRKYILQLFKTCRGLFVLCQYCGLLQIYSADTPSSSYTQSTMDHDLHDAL
The series is classed as cell membranes, Membrane. To be noted: chem-1.

In series [4] the target is T3, Alpha-1B adrenergic receptor (Rattus norvegicus, UniProt P15823).
T3 sequence (P15823 whole entry): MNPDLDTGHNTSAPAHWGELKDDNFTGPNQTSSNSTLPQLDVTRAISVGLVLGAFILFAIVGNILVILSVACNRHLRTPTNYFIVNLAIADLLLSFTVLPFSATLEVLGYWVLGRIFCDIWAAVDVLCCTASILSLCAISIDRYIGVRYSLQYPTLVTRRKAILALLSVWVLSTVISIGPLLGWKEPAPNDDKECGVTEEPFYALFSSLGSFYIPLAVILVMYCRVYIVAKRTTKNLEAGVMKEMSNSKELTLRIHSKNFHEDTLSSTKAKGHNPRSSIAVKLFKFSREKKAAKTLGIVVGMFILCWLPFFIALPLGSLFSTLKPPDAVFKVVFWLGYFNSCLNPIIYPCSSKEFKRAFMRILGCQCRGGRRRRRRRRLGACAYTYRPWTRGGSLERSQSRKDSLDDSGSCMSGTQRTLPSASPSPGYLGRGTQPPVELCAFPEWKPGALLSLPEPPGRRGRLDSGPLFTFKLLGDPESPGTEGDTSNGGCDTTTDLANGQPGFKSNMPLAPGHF
Put plainly: DRUGMATRIX: Alpha-1B adrenergic receptor radioligand binding (ligand: prazosin). The series is classed as cell membranes, Wistar, Liver, Membrane. The settings on record: Not Active = under 50% inhibition at 10 µM.

Series [5] can be described thus: DRUGMATRIX: GABAA, Muscimol, Central radioligand binding (ligand: [3H] Muscimol). Format: cell membranes, Rattus norvegicus, Wistar, Brain, Membrane. The settings on record: Not Active = under 50% inhibition at 10 µM.

Chain of Adenosine receptor A2a (P29274 whole entry): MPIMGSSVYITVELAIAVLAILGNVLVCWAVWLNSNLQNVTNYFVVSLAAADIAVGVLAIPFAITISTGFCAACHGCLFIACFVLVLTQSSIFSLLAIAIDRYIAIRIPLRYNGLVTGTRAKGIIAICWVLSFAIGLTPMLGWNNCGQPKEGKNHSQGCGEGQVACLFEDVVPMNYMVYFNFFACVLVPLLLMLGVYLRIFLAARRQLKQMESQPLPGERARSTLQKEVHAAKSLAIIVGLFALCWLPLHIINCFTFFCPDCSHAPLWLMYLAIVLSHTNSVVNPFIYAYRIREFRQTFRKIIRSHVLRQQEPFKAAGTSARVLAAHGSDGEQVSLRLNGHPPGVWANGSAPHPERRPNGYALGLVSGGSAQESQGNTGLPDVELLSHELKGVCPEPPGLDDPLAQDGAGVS
Chain of Cytochrome P450 2C19 (P33261 whole entry): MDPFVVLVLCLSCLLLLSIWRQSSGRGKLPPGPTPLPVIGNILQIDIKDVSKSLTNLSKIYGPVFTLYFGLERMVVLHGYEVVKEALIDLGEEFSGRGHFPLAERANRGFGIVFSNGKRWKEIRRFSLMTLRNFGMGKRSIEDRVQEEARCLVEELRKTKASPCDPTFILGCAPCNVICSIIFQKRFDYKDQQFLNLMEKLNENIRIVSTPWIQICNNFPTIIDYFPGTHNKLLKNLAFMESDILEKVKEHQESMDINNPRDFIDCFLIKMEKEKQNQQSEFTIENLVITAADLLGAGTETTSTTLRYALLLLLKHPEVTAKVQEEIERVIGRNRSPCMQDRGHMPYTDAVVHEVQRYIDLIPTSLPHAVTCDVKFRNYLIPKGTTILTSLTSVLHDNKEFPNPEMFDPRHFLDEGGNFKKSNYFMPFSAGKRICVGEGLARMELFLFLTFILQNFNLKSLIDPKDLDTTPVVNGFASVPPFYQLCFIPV
Chain of Matrix metalloproteinase-9 (P14780 whole entry): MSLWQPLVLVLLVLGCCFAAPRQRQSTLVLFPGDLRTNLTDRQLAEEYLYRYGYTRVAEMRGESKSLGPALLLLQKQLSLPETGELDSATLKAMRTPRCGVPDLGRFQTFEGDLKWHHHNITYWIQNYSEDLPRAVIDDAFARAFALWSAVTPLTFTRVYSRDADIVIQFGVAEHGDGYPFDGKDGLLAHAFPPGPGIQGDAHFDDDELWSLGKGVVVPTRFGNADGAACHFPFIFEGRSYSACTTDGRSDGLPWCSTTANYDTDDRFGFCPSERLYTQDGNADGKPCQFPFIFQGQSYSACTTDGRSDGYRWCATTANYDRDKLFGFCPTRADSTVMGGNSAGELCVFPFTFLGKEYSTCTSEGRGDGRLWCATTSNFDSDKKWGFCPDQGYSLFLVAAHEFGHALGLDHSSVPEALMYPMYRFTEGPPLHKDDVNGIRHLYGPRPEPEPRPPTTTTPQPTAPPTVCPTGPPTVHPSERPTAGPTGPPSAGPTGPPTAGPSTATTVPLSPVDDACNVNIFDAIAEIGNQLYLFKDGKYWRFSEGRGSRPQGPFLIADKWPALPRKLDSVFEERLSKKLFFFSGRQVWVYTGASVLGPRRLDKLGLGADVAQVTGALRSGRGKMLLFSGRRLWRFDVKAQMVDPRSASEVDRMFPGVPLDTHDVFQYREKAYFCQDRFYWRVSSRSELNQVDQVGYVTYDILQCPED

Turning to `O=c1c(-c2ccc(O)cc2)coc2cc(O)cc(O)c12` [GENISTEIN], the IC50 entry at Cytochrome P450 2C19 is “Not Active”; in series [1], “Not Active”; on Adenosine receptor A2a (read-out: IC50), 17.4 µM; in series [2] it was “Not Active”; in series [3], “Not Active”; in series [4], “Not Active”. Moreover, the half-maximal inhibitory concentration (IC50) result in series [5] is “Not Active”. For the same molecule, the inhibition constant Ki result on Cytochrome P450 2C19 is “Not Active”; at Adenosine receptor A2a (read-out: Ki), 9.79 µM; in series [5], “Not Active”.

For `CCC1=C(C)CN(C(=O)NCCc2ccc(S(=O)(=O)NC(=O)N[C@H]3CC[C@H](C)CC3)cc2)C1=O` [GLIMEPIRIDE], the IC50 entry (on Cytochrome P450 2C19; in series [1]; on Adenosine receptor A2a (hek293); in series [2]; in series [3]; in series [4]) was “Not Active” each time. In addition, the IC50 entry in series [5] was “Not Active”. The inhibitory constant (Ki) entry (on Cytochrome P450 2C19; in series [5]) was “Not Active” each time.

`Nc1cc(-c2ccncc2)c[nH]c1=O` [INAMRINONE]: the half-inhibitory concentration (IC50) entry (against Cytochrome P450 2C19; in series [1]; on Adenosine receptor A2a (hek293); in series [2]; in series [3]; in series [4]) was “Not Active” each time. The half-maximal inhibitory concentration (IC50) entry in series [5] is given as “Not Active”. Further, the Ki entry (at Cytochrome P450 2C19; in series [5]) was “Not Active” in each case.

Consider `CCCCC1=NC2(CCCC2)C(=O)N1Cc1ccc(-c2ccccc2-c2nnn[nH]2)cc1` [IRBESARTAN], for which the half-maximal inhibitory concentration (IC50) entry (at Cytochrome P450 2C19; in series [1]; at Adenosine receptor A2a (hek293); in series [2]; in series [3]; in series [4]) was “Not Active” in each case. Also, the half-maximal inhibitory concentration (IC50) result in series [5] is reported as “Not Active”. Moreover, the inhibitory constant (Ki) entry (on Cytochrome P450 2C19; in series [5]) was “Not Active” throughout.

As to `CN1CCC(=C2c3ccccc3CC(=O)c3sccc32)CC1` [KETOTIFEN], the IC50 result (on Cytochrome P450 2C19; in series [1]; on Adenosine receptor A2a (hek293); in series [2]; in series [3]; in series [4]) was “Not Active” in each case. In addition, the half-inhibitory concentration (IC50) result in series [5] is “Not Active”. Further, the inhibition constant Ki entry (on Cytochrome P450 2C19; in series [5]) was “Not Active” in each case.

On to `C[N+](C)(C)C[C@H](O)CC(=O)[O-]` [LEVOCARNITINE], for which the IC50 result (on Cytochrome P450 2C19; in series [1]; on Adenosine receptor A2a (hek293); in series [2]; in series [3]; in series [4]) was “Not Active” in each case. Also, the IC50 result in series [5] was “Not Active”. Moreover, the inhibition constant (Ki) entry (on Cytochrome P450 2C19; in series [5]) was “Not Active” in each case.

Regarding `C[C@H]1COc2c(N3CCN(C)CC3)c(F)cc3c(=O)c(C(=O)O)cn1c23.C[C@H]1COc2c(N3CCN(C)CC3)c(F)cc3c(=O)c(C(=O)O)cn1c23.O` [LEVOFLOXACIN], the half-inhibitory concentration (IC50) entry (on Cytochrome P450 2C19; in series [1]; at Adenosine receptor A2a (hek293); in series [2]; in series [3]; in series [4]) was “Not Active” throughout. Moreover, the IC50 entry in series [5] is given as “Not Active”. In addition, the inhibitory constant (Ki) result (at Cytochrome P450 2C19; in series [5]) was “Not Active” throughout.

Take `CCn1cc(C(=O)O)c(=O)c2cc(F)c(N3CCNC(C)C3)c(F)c21` (stereo not given) [LOMEFLOXACIN]: the half-inhibitory concentration (IC50) entry (against Cytochrome P450 2C19; in series [1]; on Adenosine receptor A2a (hek293); in series [2]; in series [3]; in series [4]) was “Not Active” in each case. The concentration for half-maximal inhibition (IC50) entry in series [5] is recorded as “Not Active”. For the same molecule, the Ki entry (at Cytochrome P450 2C19; in series [5]) was “Not Active” in each case.

On to `CN1CCCC(CN2c3ccccc3Sc3ccccc32)C1` (stereo not given) [MEPAZINE], for which the IC50 result at Cytochrome P450 2C19 is “Not Active”; in series [1] it was “Not Active”; at Adenosine receptor A2a (hek293), “Not Active”; in series [2], “Not Active”; in series [3], “Not Active”; in series [4] (read-out: IC50) it was 61 nM. Besides, the 50% inhibitory concentration (IC50) entry in series [5] is “Not Active”. The Ki entry is “Not Active” at Cytochrome P450 2C19, 34 nM in series [4] (read-out: Ki) and “Not Active” in series [5].

As to `Cc1cccc(C)c1NC(=O)C1CCCCN1C` (stereo not given) [MEPIVACAINE], the IC50 entry (against Cytochrome P450 2C19; in series [1]; at Adenosine receptor A2a (hek293); in series [2]; in series [3]; in series [4]) was “Not Active” in each case. The IC50 result in series [5] was “Not Active”. In addition, the Ki result (on Cytochrome P450 2C19; in series [5]) was “Not Active” in each case.

In the case of `CN(C)C(=N)NC(=N)N` [METFORMIN], the IC50 entry (against Cytochrome P450 2C19; in series [1]; on Adenosine receptor A2a (hek293); in series [2]; in series [3]; in series [4]) was “Not Active” each time. Moreover, the IC50 result in series [5] is listed as “Not Active”. For the same molecule, the Ki entry (on Cytochrome P450 2C19; in series [5]) was “Not Active” in each case.

Take `CC(C)(C)NCC(O)COc1cccc2c1CC(O)C(O)C2` (stereo not given) [NADOLOL]: the 50% inhibitory concentration (IC50) entry (on Cytochrome P450 2C19; in series [1]; at Adenosine receptor A2a (hek293); in series [2]; in series [3]; in series [4]) was “Not Active” in each case. Also, in series [5], the IC50 result was “Not Active”. The Ki result (at Cytochrome P450 2C19; in series [5]) was “Not Active” throughout.

In the case of `C[C@]12CC[C@H]3[C@@H](CCC4=CC(=O)CC[C@@H]43)[C@@H]1CC[C@@H]2O` [NANDROLONE], the IC50 result (against Cytochrome P450 2C19; in series [1]; at Adenosine receptor A2a (hek293); in series [2]; in series [3]; in series [4]) was “Not Active” each time. Besides, the IC50 result in series [5] is on record as “Not Active”. Besides, the inhibition constant Ki entry (at Cytochrome P450 2C19; in series [5]) was “Not Active” in each case.

On to `CN(C)C(=O)Oc1cccc([N+](C)(C)C)c1.[Br-]` [NEOSTIGMINE BROMIDE], for which the IC50 entry (on Cytochrome P450 2C19; in series [1]; at Adenosine receptor A2a (hek293); in series [2]; in series [3]; in series [4]) was “Not Active” in each case. The IC50 entry in series [5] was “Not Active”. The Ki entry (on Cytochrome P450 2C19; in series [5]) was “Not Active” throughout.

On to `NC(=O)c1cccnc1` [NIACINAMIDE], for which the 50% inhibitory concentration (IC50) entry (at Cytochrome P450 2C19; in series [1]; at Adenosine receptor A2a (hek293); in series [2]; in series [3]; in series [4]) was “Not Active” throughout. For the same molecule, the IC50 result in series [5] is “Not Active”. For the same molecule, the inhibitory constant (Ki) entry (at Cytochrome P450 2C19; in series [5]) was “Not Active” in each case.

Turning to `CS(=O)(=O)Nc1ccc([N+](=O)[O-])cc1Oc1ccccc1` [NIMESULIDE], the IC50 entry (against Cytochrome P450 2C19; in series [1]; on Adenosine receptor A2a (hek293); in series [2]; in series [3]; in series [4]) was “Not Active” throughout. The IC50 entry in series [5] is “Not Active”. For the same molecule, the Ki result (on Cytochrome P450 2C19; in series [5]) was “Not Active” each time.

`CN1C(=O)CN=C(c2ccccc2)c2cc([N+](=O)[O-])ccc21` [NIMETAZEPAM]: the IC50 entry (against Cytochrome P450 2C19; in series [1]; on Adenosine receptor A2a (hek293); in series [2]; in series [3]; in series [4]) was “Not Active” in each case. Besides, in series [5], the IC50 entry was “Not Active”. The Ki entry (on Cytochrome P450 2C19; in series [5]) was “Not Active” in each case.
